Test results published in patent US11969433B2, “Compositions and methods for muscle regeneration using prostaglandin E2” (The Board of Trustees of the Leland Stanford Junior …, priority 2016, dated 2024).

How the values were obtained:
[1] = tested on: MuSCs; test: Young MuSC numbers after acute PGE2 treatment, hydrogel culture (hemocytometer count); assay type: cell-based, mouse; settings: ONO-AE3-208 1 μM, PGE2 10 ng/ml, 24 hr
Procedure: (§1) Following isolation, we resuspended MuSCs in myogenic cell culture medium containing DMEM/F10 (50:50), 15% FBS, 2.5 ng ml^−1 fibroblast growth factor-2 (FGF-2 also known as bFGF) and 1% penicillin-streptomycin. We seeded MuSC suspensions at a density of 500 cells per cm^2 surface area. We maintained cell cultures at 37° C. in 5% CO2 and changed medium daily. […]
(§2) To assay proliferation, we used three different assays (hemocytometer, VisionBlue, and EdU). […] For hemocytometer cell number count, we collected cells at indicated timepoints by incubation with 0.5% trypsin in PBS for 5 min at 37° C. and quantified them using a hemocytometer at least 3 times. Additionally, we used the VisionBlue Quick Cell Viability Fluorometric Assay Kit (BioVision, catalog #K303) as a readout for cell growth in culture. Briefly, we incubated MuSCs with 10% VisionBlue in culture medium for 3 h, and measured fluorescence intensity on a fluorescence plate reader (Infinite M1000 PRO, Tecan) at Ex=530-570 nm, Em=590-620 nm. […] We quantified EdU positive cells using the MetaMorph Image Analysis software (Molecular Devices). Data analyses were blinded, where researchers performing cell scoring were unaware of the treatment condition given to sample groups analyzed.

[2] = tested on: hematopoietic, liver, and colon tissues; settings: delivery of 15-PGDH inhibitor; cited from earlier work
[3] = tested on: MuSCs; test: Quantitative RT-PCR of MuSC transcripts; assay type: cell-based, mouse; settings: aged MuSCs, 1-day pulse
Text: We isolated RNA from MuSCs using the RNeasy Micro Kit (Qiagen). For muscle samples, we snap froze the tissue in liquid nitrogen, homogenized the tissues using a mortar and pestle, followed by syringe and needle trituration, and then isolated RNA using Trizol (Invitrogen). We reverse-transcribed cDNA from total mRNA from each sample using the SensiFAST™ cDNA Synthesis Kit (Bioline). We subjected cDNA to RT-PCR using SYBR Green PCR Master Mix (Applied Biosystems) or TaqMan Assays (Applied Biosystems) in an ABI 7900HT Real-Time PCR System (Applied Biosystems). We cycled samples at 95° C. for 10 min and then 40 cycles at 95° C. for 15 s and 60° C. for 1 min. To quantify relative transcript levels, we used 2-ΔΔCt to compare treated and untreated samples and expressed the results relative to Gapdh. For SYBR Green qRT-PCR, we used the following primer sequences: Gapdh. forward 5′-[…]-3′ (SEQ ID NO: 1), reverse 5′-CCCTTTTGGCTCCACCCT-3′ (SEQ ID NO: 2); Hpgd, forward 5′-[…]-3′ (SEQ ID NO: 3), reverse 5′-[…]-3′ (SEQ ID NO: 4); Ptges, forward 5′-GCTGTCATCACAGGCCAGA-3′ (SEQ ID NO: 5), reverse 5′-[…]-3′ (SEQ ID NO: 6); Ptges2, forward 5′-[…]-3′ (SEQ ID NO: 7), reverse 5′-[…]-3′ (SEQ ID NO: 8); Ptger1, forward 5′ GTGGTGTCGTGCATCTGCT-3′ (SEQ ID NO: 9), reverse, 5′ […]-3′ (SEQ ID NO: 10), and Ptger2, forward 5′-[…]-3′ (SEQ ID NO: 11), reverse 5′-[…]-3′ (SEQ ID NO: 12). TaqMan Assays (Applied Biosystems) were used to quantify Pax7. Myogenin. Slco2a1 (PGT), Ptger3 and Ptger4 in samples according to the manufacturer instructions with the TaqMan Universal PCR Master Mix reagent kit (Applied Biosystems). Transcript levels were expressed relative to Gapdh levels. For SYBR Green qPCR, Gapdh qPCR was used to normalize input cDNA samples. For Taqman qPCR, multiplex qPCR enabled target signals (FAM) to be normalized individually by their internal Gapdh signals (VIC).

[4] = tested on: aged MuSCs; test: Aged MuSC numbers after acute 24 hr treatment, hydrogel culture; assay type: cell-based, mouse; settings: 1-day pulse; PGE2 10 ng/ml or SW033291 1 μM; assayed day 7
Procedure: as §1, §2

[5] = tested on: endogenous MuSCs; test: Endogenous MuSCs by Pax7-luciferase BLI after cardiotoxin injury; assay type: in vivo, mouse
Procedure: We performed bioluminescence imaging (BLI) using a Xenogen-100 system, as previously described^1,5,6. Briefly, we anesthetized mice using isofluorane inhalation and administered 120 μL D-luciferin (0.1 mmol kg^−1, reconstituted in PBS; Caliper LifeSciences) by intraperitoneal injection. We acquired BLI using a 60 s exposure at F-stop=1.0 at 5 minutes after luciferin injection. Digital images were recorded and analyzed using Living Image software (Caliper LifeSciences). We analyzed images with a consistent region-of-interest (ROI) placed over each hindlimb to calculate a bioluminescence signal. We calculated a bioluminescence signal in radiance (p s^−1 cm^−2 sr^−1) value of 10^4 to define an engraftment threshold. This radiance threshold of 10^4 is approximately equivalent to the total flux threshold in p/s reported previously. This BLI threshold corresponds to the histological detection of one or more GFP+ myofibers^1,5,6. We performed BLI imaging every week after transplantation.
For Pax7^CreERT2; Rosa26-LSL-Luc mice experiments, we treated mice with five consecutive daily intraperitoneal injections of tamoxifen to activate luciferase expression under the control of the Pax7 promoter. A week after the last tamoxifen injection, mice were subjected to intramuscular injection of 10 μl of cardiotoxin (10 μM; Latoxan), which we designated as day 0 of the assay. […]

[6] = tested on: tibialis anterior (TA) muscle; test: Intramuscular dmPGE2 after cardiotoxin injury of TA, histology (PAX7, myofiber CSA); assay type: in vivo, mouse
Procedure: We used an injury model entailing intramuscular injection of 10 μl of notexin (10 μg ml^−1; Latoxan) or cardiotoxin (10 μM; Latoxan) into the TA muscle. For cryoinjury, an incision was made in the skin overlying the TA muscle and a copper probe, chilled in liquid nitrogen, was applied to the TA muscle for three 10 s intervals, allowing the muscle to thaw between each application of the cryoprobe. When indicated, 48 hr after injury either 16,16-Dimethyl Prostaglandin E2 (dmPGE2) (13 nmol, Tocris, catalog #4027) or vehicle control (PBS) was injected into the TA muscle. The contralateral TA was used as an internal control. We collected tissues 14 days post-injury for analysis.
We collected and prepared recipient TA muscle tissues for histology as previously described^5,6. We incubated transverse sections with anti-LAMININ (Millipore, clone A5, catalog #05-206, 1:200), and anti-PAX7 (Santa Cruz Biotechnology, catalog #sc-81648, 1:50) primary antibodies and then with AlexaFluor secondary Antibodies (Jackson ImmunoResearch Laboratories, 1:200). We counterstained nuclei with DAPI (Invitrogen). We acquired images with an AxioPlan2 epifluorescent microscope (Carl Zeiss Microimaging) with Plan NeoFluar 10×/0.30NA or 20×/0.75NA objectives (Carl Zeiss) and an ORCA-ER digital camera (Hamamatsu Photonics) controlled by the SlideBook (3i) software. The images were cropped using Adobe Photoshop with consistent contrast adjustments across all images from the same experiment. The image composites were generated using Adobe Illustrator. We analyzed the number of PAX7 positive cells using the MetaMorph Image Analysis software (Molecular Devices), and the fiber area using the Baxter Algorithms for Myofiber Analysis that identified the fibers and segmented the fibers in the image to analyze the area of each fiber. For PAX7 quantification we examined serial sections spanning a depth of at least 2 mm of the TA. For fiber area at least 10 fields of LAMININ-stained myofiber cross-sections encompassing over 400 myofibers were captured for each mouse as above. Data analyses were blinded. The researchers performing the imaging acquisition and scoring were unaware of treatment condition given to sample groups analyzed.

[7] = tested on: MuSCs; test: MuSC transplantation into injured TA muscle, engraftment by bioluminescence imaging; assay type: in vivo, mouse
[8] = tested on: gastrocnemius (GA) muscle; test: In vivo muscle force after downhill treadmill run, aged mice (Example 1); parameters: species or system mouse; settings: dmPGE2 daily 5 days in week 1, force at week 5
Procedure: Aged mice (18 mo.) were subjected to downhill treadmill run for 2 consecutive weeks. During week 1, mice ran daily for 5 days and rested on days 6 and 7. Two hours after each treadmill run during week 1, each (lateral and medial) gastrocnemius (GA) muscle from both legs of each mouse was injected with a dose of either PBS (vehicle control) or 13 nM dmPGE2 (experimental group). During week 2, mice were subjected to 5 days treadmill run only. The treadmill run was performed using the Exer3/6 (Columbus Instruments). Mice ran for 10 minutes on the treadmill at 20 degrees downhill, starting at a speed of 7 meters/min. After 3 min, the speed was increased by 1 meter/min to a final speed of 14 meter/min. […] Force measurements were on the GA muscles at week 5 based on a protocol published previously^5. […] Data were collected with a PCI-6251 acquisition card (National Instruments) and analyzed in Matlab. We calculated specific force values by normalizing the force measurements by the muscle physiological cross-sectional areas (PCSAs), which were similar between the control and the experimental PGE2 treated group (Table 2). PCSA (measured in mm^2) was calculated according to the following equation^12: PCSA (mm^2)=[mass (g)×Cos θ]÷[ρ(g/mm^3)×fiber length (mm)], where θ is pennation angle of the fiber and ρ is muscle density (0.001056 g/mm^3). […]

[9] = tested on: Tibialis anterior (TA); test: Muscle twitch force after injury and indomethacin injection; assay type: in vivo, mouse; settings: day 14 post-injury, indomethacin into cardiotoxin-injured muscles

CC(C(=O)Nc1cc(C#N)ccc1CCCC(=O)O)c1ccc(F)c2ccccc12 (stereo not shown) [ONO-AE3-208]
proliferation induced by PGE2 in presence of EP4 antagonist [1]: blunted

CCCC[S+]([O-])c1sc2nc(-c3cccs3)cc(-c3ccccc3)c2c1N (stereo not shown) [SW033291]
regeneration of hematopoietic, liver, and colon tissues [2]: enhance regeneration | Pax7 expression in aged MuSCs [3]: maintenance | proliferation of aged MuSCs [4]: increase

CCCCC(C)(C)[C@H](O)/C=C/[C@H]1[C@H](O)CC(=O)[C@@H]1C/C=C\CCCC(=O)O [dmPGE2, 16,16-dimethyl prostaglandin E2]
endogenous MuSCs assayed by Pax7-luciferase BLI ([5]; dmPGE2 3 days after cardiotoxin injury): Increase | myofiber sizes ([6]; aged mice, fourteen days post-injury): increase | increase in the number of endogenous MuSCs ([6]; aged mice, fourteen days post-injury, single dmPGE2 injection): 24±2% | distribution of myofibers (cross-sectional area) ([6]; young mice, day 14 post injury): shifted toward larger sizes | increase in endogenous PAX7-expressing MuSCs ([6]; young mice, fourteen days post cardiotoxin injury, single dmPGE2 bolus): 60+15% | effect on endogenous MuSCs in the absence of injury ([6]; young mice, no injury): no effect | engraftment of aged MuSCs relative to controls ([7]; aged MuSCs (250 cells) coinjected with dmPGE2): significantly enhanced | engraftment of young MuSCs relative to controls ([7]; freshly sorted young MuSCs (250 cells) coinjected with 13 nmol dmPGE2): significantly enhanced | specific tetanic force [8]: significantly increased | specific twitch force [8]: significantly increased

COc1ccc2c(c1)c(CC(=O)O)c(C)n2C(=O)c1ccc(Cl)cc1 [indomethacin]
luciferase activity (muscle stem cell activation) ([5]; indomethacin injected three days post-cardiotoxin injury): significant decrease | Twitch force compared to control group [9]: significant loss
